Laboratory results published in patent US12624044B2, “SMARCA degraders and uses thereof” (Kymera Therapeutics, Inc., priority 2019, dated 2026).
Counter-ions that a name gives are not always drawn.

Columns and labels:
SMARCA2 [1] = target: T1, SMARCA2 (Homo sapiens, UniProt P51531); test: MSD SMARCA2 degradation in NCI-H1299 cell line (24 h); type: cell-based; parameters: HC: NCI-H1299 cells treated with DMSO; host or cells: NCI-H1299; details: for DC50: NCI-H1299 cells, read-out: SMARCA2 MSD H1299 degradation 24 h: External Abs-DC50; for Dmax: NCI-H1299, NCI-H1299 cells
T1 sequence (P51531 whole entry): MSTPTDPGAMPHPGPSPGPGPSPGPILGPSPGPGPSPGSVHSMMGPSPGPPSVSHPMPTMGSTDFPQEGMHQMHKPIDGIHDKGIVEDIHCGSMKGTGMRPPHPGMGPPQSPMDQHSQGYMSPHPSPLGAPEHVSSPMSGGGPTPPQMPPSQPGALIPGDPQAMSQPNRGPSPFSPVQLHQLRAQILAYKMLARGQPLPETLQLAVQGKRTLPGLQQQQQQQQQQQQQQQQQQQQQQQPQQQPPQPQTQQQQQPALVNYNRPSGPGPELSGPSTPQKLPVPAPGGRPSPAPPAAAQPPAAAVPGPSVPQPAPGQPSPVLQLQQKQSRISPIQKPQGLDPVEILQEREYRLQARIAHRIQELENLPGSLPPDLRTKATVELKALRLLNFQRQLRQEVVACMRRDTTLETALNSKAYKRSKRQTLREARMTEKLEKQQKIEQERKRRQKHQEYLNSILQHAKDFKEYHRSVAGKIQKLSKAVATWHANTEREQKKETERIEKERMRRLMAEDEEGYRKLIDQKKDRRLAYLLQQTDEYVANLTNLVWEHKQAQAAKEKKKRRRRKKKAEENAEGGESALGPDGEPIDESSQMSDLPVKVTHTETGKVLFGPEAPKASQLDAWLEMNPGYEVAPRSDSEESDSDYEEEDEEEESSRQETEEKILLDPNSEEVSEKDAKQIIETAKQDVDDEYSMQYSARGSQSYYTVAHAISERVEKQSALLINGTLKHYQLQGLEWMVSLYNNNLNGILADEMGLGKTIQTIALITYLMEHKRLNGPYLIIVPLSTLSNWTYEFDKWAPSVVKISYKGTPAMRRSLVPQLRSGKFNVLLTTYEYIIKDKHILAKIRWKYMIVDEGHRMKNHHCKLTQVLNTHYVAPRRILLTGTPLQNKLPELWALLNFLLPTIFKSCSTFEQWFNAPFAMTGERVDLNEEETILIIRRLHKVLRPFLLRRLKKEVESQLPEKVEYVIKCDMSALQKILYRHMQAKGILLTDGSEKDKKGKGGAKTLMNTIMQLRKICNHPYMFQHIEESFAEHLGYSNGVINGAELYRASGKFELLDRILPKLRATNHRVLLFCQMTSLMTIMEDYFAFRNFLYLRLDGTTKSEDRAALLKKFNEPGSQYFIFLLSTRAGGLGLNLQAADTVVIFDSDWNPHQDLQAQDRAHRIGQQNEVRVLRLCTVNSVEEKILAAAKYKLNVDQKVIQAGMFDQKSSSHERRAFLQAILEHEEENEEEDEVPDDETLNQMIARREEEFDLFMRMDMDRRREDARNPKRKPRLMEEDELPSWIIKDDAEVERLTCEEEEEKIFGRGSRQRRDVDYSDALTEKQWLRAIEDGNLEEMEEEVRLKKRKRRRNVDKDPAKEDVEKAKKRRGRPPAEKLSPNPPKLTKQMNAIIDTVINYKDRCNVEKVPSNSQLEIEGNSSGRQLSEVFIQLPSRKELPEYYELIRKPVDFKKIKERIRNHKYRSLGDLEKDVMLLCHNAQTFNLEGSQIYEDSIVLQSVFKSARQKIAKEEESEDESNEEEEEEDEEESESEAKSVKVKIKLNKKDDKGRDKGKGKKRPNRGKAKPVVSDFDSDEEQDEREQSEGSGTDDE
In short: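 SMARCA2 measured by MSD electrochemiluminescence (primary 0.3 ug/ml, secondary 1 ug/ml) on lysates from NCI-H1299 cells exposed to compounds for 24 h across nine 3-fold dilutions. Signal scaled from A2780 cells (no SMARCA2) to DMSO-treated H1299 controls, and maximal degradation after 24 h reported in letter categories.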

SMARCA2 [2] = target: T1, SMARCA2; test: MSD SMARCA2 degradation in A549 cell line; type: cell-based; details: 24 h; for Dmax: A549, A549 cells; for DC50: A549 cells, read-out: SMARCA2 MSD A549 degradation 24 h: Average external-Abs DC50
Procedure: Cells were seeded into 96-well plates (A549 cells: 2×10^4 cells/well/100 ul media) abd incubated overnight. The next day, 200 nl compound were added into the intermediate plate with Echo (Labcyte 550) from source plate containing a 3-fold serial dilution from top concentration of 1 mM. The culture medium was changed with 80 ul of fresh medium and 80 ul of 2× compound solution was added into the well to make a final concentration of 1000 nM, 333.3 nM, 111.1 nM, 37.04 nM, 12.35 nM, 4.115 nM, 1.372 nM, 0.457 nM, 0.152 nM and 0 nM (DMSO). The wells were mixed and then incubated for 24 hours. The media was aspirated from the cultures and 60 ul pre-chilled PIPA lysis buffer (Boston BioProducts BP-115D) with protease/phosphatase inhibitor (Roche 05892791001/Roche 04906837001) was added into the well to lyze the cells for 20 minutes at 4° C. The MSD plate (L15XA) was coated with 40 ul cell lysate and incubated at 4° C. overnight. The next day, the plate was washed three times with TBST (CST #9997S), 150 ul/well. The MSD plates was blocked with 150 ul blocking buffer per well and shaked for 1 hr at RT, 600 rpm. The blocking buffer was 3% Blocker A (MSD, R93BA-4) in TBST. The MSD plate was washed three times with 150 ul/well of TBST and 25 ul/well of detection antibody (Rabbit anti-SMARCA2/BRM antibody, 100 μg/ml, ab223735) was added at final concentration of 1 ug/ml diluted in 1% Blocking buffer and shaken for 1 hour at RT, 600 rpm. The MSD plate was washed three times with 150 ul/well of TBST and 25 ul/well of SULFO-TAG anti-rabbit antibody (MSD, R32AB-1) was added at final concentration of 1 ug/ml diluted in 1% Blocking buffer and shaken for 1 hour at RT, 600 rpm. The MSD plate was washed three times with 150 ul/well of TBST and 150 ul/well of 2×MSD reading buffer diluted from 4× (MSD, R92TC-2) with water was added. Lastly, the MSD instrument was read.
The letter codes for the percentage of SMARCA2 degradation after 24 hours (Dmax %) include: A (>90% degradation), B (>70-90% degradation), C (50-70% degradation), and D (<50% degradation).

Row | Compound | DC50 (SMARCA2 [1]) | Dmax (SMARCA2 [1]) | Dmax (SMARCA2 [2]) | DC50 (SMARCA2 [2])
1 | Cc1ncsc1-c1ccc(CNC(=O)[C@@H]2C[C@@H](O)CN2C(=O)[C@@H](NC(=O)COCCOCCOCCOCCOCCNC(=O)c2ccc(C(C)n3cc(-c4cc(-c5ccccc5O)nnc4N)cn3)cc2)C(C)(C)C)cc1 (stereo partly shown) [I-226] | > 1000 nM |  |  | 
2 | Cc1ncsc1-c1ccc(CNC(=O)[C@@H]2C[C@@H](O)CN2C(=O)[C@@H](NC(=O)COCCOCCOCCOCCNC(=O)c2ccc(C(C)n3cc(-c4cc(-c5ccccc5O)nnc4N)cn3)cc2)C(C)(C)C)cc1 (stereo partly shown) [I-227] | > 1000 nM |  |  | 
3 | Cc1ncsc1-c1ccc(CNC(=O)[C@@H]2C[C@@H](O)CN2C(=O)[C@@H](NC(=O)COCCOCCOCCNC(=O)CCCCCCCCOc2ccc(N3C[C@H]4C[C@@H]3CN4/C=C/C(=O)c3ccccc3O)nc2)C(C)(C)C)cc1 [I-228] | > 1000 nM |  |  | 
4 | Cc1ncsc1-c1ccc(CNC(=O)[C@@H]2C[C@@H](O)CN2C(=O)[C@@H](NC(=O)COCCOCCOCCOCCOCCOCCNC(=O)CCCCCCCCOc2ccc(N3C[C@H]4C[C@@H]3CN4/C=C/C(=O)c3ccccc3O)nc2)C(C)(C)C)cc1 [I-229] | > 1000 nM |  |  | 
5 | Cc1ncsc1-c1ccc(CNC(=O)[C@@H]2C[C@@H](O)CN2C(=O)[C@@H](NC(=O)COCCOCCOCCOCCOCCNC(=O)CCCCCCCCOc2ccc(N3C[C@H]4C[C@@H]3CN4/C=C/C(=O)c3ccccc3O)nc2)C(C)(C)C)cc1 [I-230] | > 1000 nM |  |  | 
6 | Cc1ncsc1-c1ccc(CNC(=O)[C@@H]2C[C@@H](O)CN2C(=O)[C@@H](NC(=O)COCCOCCOCCOCCNC(=O)CCCCCCCCOc2ccc(N3C[C@H]4C[C@@H]3CN4/C=C/C(=O)c3ccccc3O)nc2)C(C)(C)C)cc1 [I-231] | > 1000 nM |  |  | 
7 | COc1cc(C(=O)NCCCN2CCN(Cc3ccc(-c4cc(-c5ccccc5O)nnc4N)cc3)CC2)ccc1NC(=O)[C@@H]1N[C@@H](CC(C)(C)C)[C@](C#N)(c2ccc(Cl)cc2F)[C@H]1c1cccc(Cl)c1F [I-232, (2R,3S,4R,5S)—N-(4-((3-(4-(4-(3-amino-6-(2-hydroxyphenyl)pyridazin-4-yl)benzyl)piperazin-1-yl)propyl)carbamoyl)-2-methoxyphenyl)-3-(3-chloro-2-fluorophenyl)-4-(4-chloro-2-fluorophenyl)-4-cyano-5-neopentylpyrrolidine-2-carboxamide] | > 1000 nM | < 50% |  | 
8 | COc1cc(C(=O)NCCCCCCCCCN2CCN(Cc3ccc(-c4cc(-c5ccccc5O)nnc4N)cc3)CC2)ccc1NC(=O)[C@@H]1N[C@@H](CC(C)(C)C)[C@](C#N)(c2ccc(Cl)cc2F)[C@H]1c1cccc(Cl)c1F [I-233, (2R,3S,4R,5S)—N-[4-[9-[4-[[4-[3-amino-6-(2-hydroxyphenyl)pyridazin-4-yl]phenyl]methyl]piperazin-1-yl]nonylcarbamoyl]-2-methoxy-phenyl]-3-(3-chloro-2-fluoro-phenyl)-4-(4-chloro-2-fluoro-phenyl)-4-cyano-5-(2,2-dimethylpropyl)pyrrolidine-2-carboxamide] | > 1000 nM | < 50% |  | 
9 | COc1cc(C(=O)NCCCCCCCCCCCNCc2ccc(N3CCN(c4cc(-c5ccccc5O)nnc4N)CC3)cc2)ccc1NC(=O)[C@@H]1N[C@@H](CC(C)(C)C)[C@](C#N)(c2ccc(Cl)cc2F)[C@H]1c1cccc(Cl)c1F [I-234] | > 1000 nM | 50 to 70% |  | 
10 | COc1cc(C(=O)NCCCCCCCCCNCc2ccc(N3CCN(c4cc(-c5ccccc5O)nnc4N)CC3)cc2)ccc1NC(=O)[C@@H]1N[C@@H](CC(C)(C)C)[C@](C#N)(c2ccc(Cl)cc2F)[C@H]1c1cccc(Cl)c1F [I-235] | > 1000 nM | < 50% |  | 
11 | COc1cc(C(=O)NCCCCCCCNCc2ccc(N3CCN(c4cc(-c5ccccc5O)nnc4N)CC3)cc2)ccc1NC(=O)[C@@H]1N[C@@H](CC(C)(C)C)[C@](C#N)(c2ccc(Cl)cc2F)[C@H]1c1cccc(Cl)c1F [I-236] | > 1000 nM | < 50% |  | 
12 | COc1cc(C(=O)NCCCCCNCc2ccc(N3CCN(c4cc(-c5ccccc5O)nnc4N)CC3)cc2)ccc1NC(=O)[C@@H]1N[C@@H](CC(C)(C)C)[C@](C#N)(c2ccc(Cl)cc2F)[C@H]1c1cccc(Cl)c1F [I-237] | > 1000 nM | < 50% |  | 
13 | COc1cc(C(=O)NCCCNCc2ccc(N3CCN(c4cc(-c5ccccc5O)nnc4N)CC3)cc2)ccc1NC(=O)[C@@H]1N[C@@H](CC(C)(C)C)[C@](C#N)(c2ccc(Cl)cc2F)[C@H]1c1cccc(Cl)c1F [I-238, (2R,3S,4R,5S)—N-(4-((3-((4-(4-(3-amino-6-(2-hydroxyphenyl)pyridazin-4-yl)piperazin-1-yl)benzyl)amino)propyl)carbamoyl)-2-methoxyphenyl)-3-(3-chloro-2-fluorophenyl)-4-(4-chloro-2-fluorophenyl)-4-cyano-5-neopentylpyrrolidine-2-carboxamide hydrochloride] | > 1000 nM |  |  | 
14 | Cn1c(=O)n(C2CCC(=O)NC2=O)c2ccc(CCCCCCCCCNCc3cccc(C#Cc4cc(NC(=O)Nc5cc(F)ncc5CO)ccn4)c3)cc21 (stereo not shown) [I-302, 1-(2-((3-(((9-(1-(2,6-dioxopiperidin-3-yl)-3-methyl-2-oxo-2,3-dihydro-1H-benzo[d]imidazol-5-yl)nonyl)amino)methyl)phenyl)ethynyl)pyridin-4-yl)-3-(2-fluoro-5-(hydroxymethyl)pyridin-4-yl)urea] |  |  | < 50% | > 1000 nM
15 | Cn1c(=O)n(C2CCC(=O)NC2=O)c2ccc(CCCCCCCCCNCc3ccc(C#Cc4cc(NC(=O)Nc5cc(F)ncc5CO)ccn4)cc3)cc21 (stereo not shown) [I-303] |  |  | < 50% | > 1000 nM
16 | CN(CCCOCCCc1cccc2c1n(C)c(=O)n2C1CCC(=O)NC1=O)Cc1ccc(C#Cc2cc(NC(=O)Nc3cc(F)ncc3CO)ccn2)cc1 (stereo not shown) [I-304] |  |  | < 50% | > 1000 nM
17 | Cn1c(=O)n(C2CCC(=O)NC2=O)c2cccc(CN3CCC(OC4CCN(Cc5ccc(C#Cc6cc(NC(=O)Nc7cc(F)ncc7CO)ccn6)cc5)CC4)CC3)c21 (stereo not shown) [I-305] |  |  | < 50% | > 1000 nM
18 | Cn1c(=O)n(C2CCC(=O)NC2=O)c2ccc(CCCOCCCCN3CCN(Cc4ccc(C#Cc5cc(NC(=O)Nc6cc(F)ncc6CO)ccn5)cc4)CC3)cc21 (stereo not shown) [I-306] |  |  | < 50% | > 1000 nM
19 | Cn1c(=O)n(C2CCC(=O)NC2=O)c2cccc(CCCOC3CCN(Cc4ccc(C#Cc5cc(NC(=O)Nc6cc(F)ncc6CO)ccn5)cc4)CC3)c21 (stereo not shown) [I-307] |  |  | < 50% | > 1000 nM
20 | CN(Cc1ccc(C#Cc2cc(NC(=O)Nc3cc(F)ncc3CO)ccn2)cc1)CC1CCN(Cc2cccc3c2n(C)c(=O)n3C2CCC(=O)NC2=O)CC1 (stereo not shown) [I-308] |  |  | < 50% | > 1000 nM
21 | O=C1CCC(n2c(=O)oc3c(CCCOC4CCN(Cc5ccc(C#Cc6cc(NC(=O)Nc7cc(F)ncc7CO)ccn6)cc5)CC4)cccc32)C(=O)N1 (stereo not shown) [I-309] |  |  | < 50% | > 1000 nM
22 | CN(Cc1ccc(C#Cc2cc(NC(=O)Nc3cc(F)ncc3CO)ccn2)cc1)C1CCN(Cc2cccc3c2n(C)c(=O)n3C2CCC(=O)NC2=O)CC1 (stereo not shown) [I-310] |  |  | < 50% | > 1000 nM
23 | CN(Cc1ccc(C#Cc2cc(NC(=O)Nc3cc(F)ncc3CO)ccn2)cc1)C1CCN(C(=O)c2cccc3c2n(C)c(=O)n3C2CCC(=O)NC2=O)CC1 (stereo not shown) [I-311] |  |  | < 50% | > 1000 nM
24 | CN(CCCOCCCc1cccc2c1n(C)c(=O)n2C1CCC(=O)NC1=O)Cc1cccc(C#Cc2cc(NC(=O)Nc3cc(F)ncc3CO)ccn2)c1 (stereo not shown) [I-312] |  |  | < 50% | > 1000 nM
25 | Cn1c(=O)n(C2CCC(=O)NC2=O)c2cccc(CN3CCC(OC4CCN(Cc5cccc(C#Cc6cc(NC(=O)Nc7cc(F)ncc7CO)ccn6)c5)CC4)CC3)c21 (stereo not shown) [I-313] |  |  | < 50% | > 1000 nM
26 | Cn1c(=O)n(C2CCC(=O)NC2=O)c2ccc(CCCOCCCCN3CCN(Cc4cccc(C#Cc5cc(NC(=O)Nc6cc(F)ncc6CO)ccn5)c4)CC3)cc21 (stereo not shown) [I-314] |  |  | < 50% | > 1000 nM
27 | Cn1c(=O)n(C2CCC(=O)NC2=O)c2cccc(CCCOC3CCN(Cc4cccc(C#Cc5cc(NC(=O)Nc6cc(F)ncc6CO)ccn5)c4)CC3)c21 (stereo not shown) [I-315] |  |  | < 50% | > 1000 nM
28 | CN(Cc1cccc(C#Cc2cc(NC(=O)Nc3cc(F)ncc3CO)ccn2)c1)CC1CCN(Cc2cccc3c2n(C)c(=O)n3C2CCC(=O)NC2=O)CC1 (stereo not shown) [I-316] |  |  | < 50% | > 1000 nM
